US7588892B2, “Reagent sets and gene signatures for renal tubule injury” (Entelos, Inc., priority 2004, dated 2009)
Like-named read-outs stand apart in the source and are kept apart here.

Assays:
renal tubules [1] = conditions: rats, daily dose, route and vehicle of Table 2, day 5/7; absence of nephrotoxicity asserted from PDR and published literature; no histological injury on day 5/7; cited from earlier work
renal tubules [2] = assay: 28-day repeat dose study of known nephrotoxicants, kidney histopathology on day 5 and day 28; format: in vivo, rat; conditions: for evidence of tubular injury / incidence of interstitial inflammation / proteinaceous casts, tubular cysts and mineralization, animals affected: day 28, kidney histopathology; for incidence of interstitial inflammation / proteinaceous casts, tubular cysts and mineralization, animals affected: n=10
Procedure: 28-day repeat dose studies were conducted on known nephrotoxicants. Doses were chosen that would not cause histological or clinical evidence of renal tubular injury after 5 days of dosing, but would cause histological evidence of tubular injury after 28 days of dosing. Animals were assigned to groups such that mean body weights were within 10% of the mean vehicle control group. Test compounds were administered either orally (10 ml of corn oil/kg body weight) or by intra-peritoneal injection (5 ml of saline/kg body weight). Animals were dosed once daily starting on day 0, and necropsied 24 hrs after the last dose following an overnight fast on day 5 (n=5) and day 28 (n=10). An equivalent number of time- and vehicle-matched control rats were treated concurrently.
To derive a signature predictive of renal tubular injury, it is necessary to first define both nephrotoxic and non-nephrotoxic treatments from short-term studies devoid of tissue injury that can be used to model the early transcriptional effects that will be predictive of late-onset toxicity.
Doses were chosen that would not cause histological or clinical evidence of renal tubular injury after 5 days of dosing, but would cause histological evidence of tubular injury after 28 days of dosing.
Male Sprague-Dawley (Crl:CD®(SD)(IGS)BR) rats (Charles River Laboratories, Portage, Mich.), weight matched, 7 to 8 weeks of age, were housed individually in hanging, stainless steel, wire-bottom cages in a temperature (66-77° F.), light (12-hour dark/light cycle) and humidity (30-70%) controlled room. […] Housing and treatment of the animals were in accordance with regulations outlined in the USDA Animal Welfare Act (9 CFR Parts 1, 2 and 3).
All animals were monitored daily for clinical observations approximately 1 hr after dosing. […] Paired organs were weighed together. Body weights were recorded pre-test and daily thereafter for reference database (i.e., DrugMatrix™) studies, and on days 0, 3, 5, 7, 14 and 28 for the sub-chronic studies. Terminal body weights were measured at necropsy and used to calculate relative organ weights and percent body weight gain relative to day 0.
The right kidney was preserved in 10% buffered formalin for tissue fixation and subsequently embedded in paraffin, sectioned and stained with hematoxylin and eosin. Sections (5 μm thick) were examined under light microscope by Board Certified Pathologists for histopathological lesions. The left kidney was snap frozen in liquid nitrogen for subsequent RNA extraction.

[3] = male Sprague-Dawley rats, daily dose, route and vehicle of Table 2, late-onset renal tubular injury empirically confirmed after 28 days of dosing, expression profile day 5
[4] = after 4 weeks of dosing, kidney histopathology
[5] = day 5, kidney histopathology, n=5

Compound | Class (nephrotoxic / non-nephrotoxic training label) (renal tubules [1]) | other results
COc1ccc2cc(CC(=O)O)ccc2c1 | Non-nephrotoxic | –
CC(C)CN(C[C@@H](O)[C@H](Cc1ccccc1)NC(=O)O[C@H]1CCOC1)S(=O)(=O)c1ccc(N)cc1 | Non-nephrotoxic | –
CCOc1nc2cccc(C(=O)O)c2n1Cc1ccc(-c2ccccc2-c2nnn[nH]2)cc1 | Non-nephrotoxic | –
CCOC(=O)[C@H](CCc1ccccc1)N[C@@H](C)C(=O)N1[C@H](C(=O)O)C[C@@H]2CCC[C@@H]21 | Non-nephrotoxic | –
CCCCCCCCCc1ccc(O)cc1 [4-NONYLPHENOL] | – | evidence of tubular injury (renal tubules [2]): clear evidence of tubular injury; incidence of interstitial inflammation (renal tubules [2]): 6 rats; proteinaceous casts, tubular cysts and mineralization, animals affected (renal tubules [2]): one; Class (nephrotoxic / non-nephrotoxic training label) (renal tubules [2]; rat, in vivo): Nephrotoxic
C[C@H]1O[C@H](O[C@H]2[C@H](O)[C@@H](O)[C@@H](O[C@H]3[C@H](O)[C@@H](O)C(O)O[C@@H]3CO)O[C@@H]2CO)[C@H](O)[C@@H](O)[C@@H]1N[C@H]1C=C(CO)[C@@H](O)[C@H](O)[C@H]1O (some centres unmarked) [ACARBOSE] | Non-nephrotoxic | –
NCC[C@H](O)C(=O)N[C@@H]1C[C@H](N)[C@@H](O[C@H]2O[C@H](CN)[C@@H](O)[C@H](O)[C@H]2O)[C@H](O)[C@H]1O[C@H]1O[C@H](CO)[C@@H](O)[C@H](N)[C@H]1O [AMIKACIN] | – | Class (nephrotoxic / non-nephrotoxic training label) (renal tubules [2]; [3]): Nephrotoxic
CC(=O)Oc1ccccc1C(=O)O [ASPIRIN] | Non-nephrotoxic | –
Cn1cnc([N+](=O)[O-])c1Sc1ncnc2nc[nH]c12 [AZATHIOPRINE] | Non-nephrotoxic | –
CNCCc1ccccn1 [BETAHISTINE] | Non-nephrotoxic | –
CC(C)(c1ccc(O)cc1)c1ccc(O)cc1 [BISPHENOL A] | Non-nephrotoxic | –
Oc1c(Cl)cc(Cl)cc1Sc1cc(Cl)cc(Cl)c1O [BITHIONOL] | Non-nephrotoxic | –
[Cl][Cd][Cl] [CADMIUM CHLORIDE] | – | Class (nephrotoxic / non-nephrotoxic training label) (renal tubules [2]; [3]): Nephrotoxic
C[C@H](CS)C(=O)N1CCC[C@H]1C(=O)O [CAPTOPRIL] | Non-nephrotoxic | –
N.N.O=C([O-])C1(C(=O)[O-])CCC1.[Pt+2] [CARBOPLATIN] | – | incidence of karyomegaly (renal tubules [2]; [4]): high incidence; incidence of karyomegaly (renal tubules [2]; [5]): 5 rats; Class (nephrotoxic / non-nephrotoxic training label) (renal tubules [2]; [3]): Nephrotoxic
Cc1ccc(-c2cc(C(F)(F)F)nn2-c2ccc(S(N)(=O)=O)cc2)cc1 [CELECOXIB] | Non-nephrotoxic | –
N.N.[Cl][Pt][Cl] [CISPLATIN] | – | incidence of karyomegaly (renal tubules [2]; [4]): high incidence; incidence of karyomegaly (renal tubules [2]; [5]): 3 rats
CCOC(=O)C(C)(C)Oc1ccc(Cl)cc1 [CLOFIBRATE] | Non-nephrotoxic | –
[Cl-].[Cl-].[Co+2] [COBALT (II) CHLORIDE] | – | incidence of karyomegaly (renal tubules [2]; [4]): high incidence; Class (nephrotoxic / non-nephrotoxic training label) (renal tubules [2]; [3]): Nephrotoxic
COc1cccc2c1C(=O)c1c(O)c3c(c(O)c1C2=O)C[C@@](O)(C(C)=O)C[C@@H]3O[C@H]1C[C@H](N)[C@H](O)[C@H](C)O1 [DAUNORUBICIN] | – | Class (nephrotoxic / non-nephrotoxic training label) (renal tubules [2]; [3]): Nephrotoxic
COc1cccc2c1C(=O)c1c(O)c3c(c(O)c1C2=O)C[C@@](O)(C(=O)CO)C[C@@H]3O[C@H]1C[C@H](N)[C@H](O)[C@H](C)O1 [DOXORUBICIN] | – | Class (nephrotoxic / non-nephrotoxic training label) (renal tubules [2]; [3]): Nephrotoxic
CCO [ETHANOL] | Non-nephrotoxic | –
CC12CCC(CC1)C(C)(C)O2 [EUCALYPTOL] | Non-nephrotoxic | –
CC(C)OC(=O)C(C)(C)Oc1ccc(C(=O)c2ccc(Cl)cc2)cc1 [FENOFIBRATE] | Non-nephrotoxic | –
CC(C)n1c(/C=C/C(O)CC(O)CC(=O)O)c(-c2ccc(F)cc2)c2ccccc21 (centres unmarked) [FLUVASTATIN] | Non-nephrotoxic | –

Compound | Class (nephrotoxic / non-nephrotoxic training label) (renal tubules [1]) | other results
CNC[C@H](O)[C@@H](O)[C@H](O)[C@H](O)CO.CNC[C@H](O)[C@@H](O)[C@H](O)[C@H](O)CO.O=C([O-])CN(CCN(CC(=O)[O-])CC(=O)O)CCN(CC(=O)[O-])CC(=O)O.[Gd+3] [GADOPENTETATE DIMEGLUMINE] | Non-nephrotoxic | –
Cc1ccc(C)c(OCCCC(C)(C)C(=O)O)c1 [GEMFIBROZIL] | Non-nephrotoxic | –
Cc1ccc(S(=O)(=O)NC(=O)NN2CC3CCCC3C2)cc1 (centres unmarked) [GLICLAZIDE] | Non-nephrotoxic | –
NCC(=O)O [GLYCINE] | Non-nephrotoxic | –
CC(=O)[C@]1(O)Cc2c(O)c3c(c(O)c2[C@@H](O[C@H]2C[C@H](N)[C@H](O)[C@H](C)O2)C1)C(=O)c1ccccc1C3=O [IDARUBICIN] | – | Class (nephrotoxic / non-nephrotoxic training label) (renal tubules [2]; [3]): Nephrotoxic
CC(=O)[O-].CC(=O)[O-].[Pb+2] [LEAD (II) ACETATE] | – | incidence of karyomegaly (renal tubules [2]; [4]): high incidence; mild tubular dilation and proteinaceous casts, animals affected (renal tubules [2]; day 5, kidney histopathology): one; Class (nephrotoxic / non-nephrotoxic training label) (renal tubules [2]; [3]): Nephrotoxic
Cc1oncc1C(=O)Nc1ccc(C(F)(F)F)cc1 [LEFLUNOMIDE] | Non-nephrotoxic | –
CCC[C@@H]1C[C@@H](C(=O)N[C@@H]([C@H]2O[C@H](SC)[C@H](O)[C@@H](O)[C@H]2O)[C@@H](C)O)N(C)C1 [LINCOMYCIN] | Non-nephrotoxic | –
CC[C@H](C)C(=O)O[C@H]1C[C@@H](C)C=C2C=C[C@H](C)[C@H](CC[C@@H]3C[C@@H](O)CC(=O)O3)[C@H]21 [LOVASTATIN] | Non-nephrotoxic | –
CN(C)C=O [N,N-DIMETHYLFORMAMIDE] | Non-nephrotoxic | –
CCN(CC)N=O [N-NITROSODIETHYLAMINE] | Non-nephrotoxic | –
CCN[C@@H]1C[C@H](N)[C@@H](O[C@H]2OC(CN)=CC[C@H]2N)[C@H](O)[C@H]1O[C@H]1OC[C@](C)(O)[C@H](NC)[C@H]1O [NETILMICIN] | – | Class (nephrotoxic / non-nephrotoxic training label) (renal tubules [2]; [3]): Nephrotoxic
CO[C@H]1C[C@@H]2CC[C@@H](C)[C@@](O)(O2)C(=O)C(=O)N2CCCC[C@H]2C(=O)O[C@H]([C@H](C)C[C@@H]2CC[C@@H](O)[C@H](OC)C2)CC(=O)[C@H](C)/C=C(\C)[C@@H](O)[C@@H](OC)C(=O)[C@H](C)C[C@H](C)/C=C/C=C/C=C/1C [RAPAMYCIN] | Non-nephrotoxic | –
CO[C@H]1/C=C/O[C@@]2(C)Oc3c(C)c(O)c4c(c3C2=O)C2=NC3(CCN(CC(C)C)CC3)NC2=C(NC(=O)/C(C)=C\C=C\[C@H](C)[C@H](O)[C@@H](C)[C@@H](O)[C@@H](C)[C@H](OC(C)=O)[C@@H]1C)C4=O [RIFABUTIN] | Non-nephrotoxic | –
O=[N+]([O-])c1cc([As](=O)(O)O)ccc1O [ROXARSONE] | – | evidence of tubular injury (renal tubules [2]): clear evidence of tubular injury; incidence of interstitial inflammation (renal tubules [2]): 6 rats; proteinaceous casts, tubular cysts and mineralization, animals affected (renal tubules [2]): one; Class (nephrotoxic / non-nephrotoxic training label) (renal tubules [2]; [3]): Nephrotoxic
O=C1C(CC[S+]([O-])c2ccccc2)C(=O)N(c2ccccc2)N1c1ccccc1 (centres unmarked) [SULFINPYRAZONE] | Non-nephrotoxic | –
NC(=O)N1C(=O)/C(=C(\O)c2cccs2)c2cc(Cl)ccc21 [TENIDAP] | Non-nephrotoxic | –
CS(=O)(=O)c1ccc([C@@H](O)[C@@H](CO)NC(=O)C(Cl)Cl)cc1 [THIAMPHENICOL] | Non-nephrotoxic | –
NC[C@H]1O[C@H](O[C@H]2[C@H](O)[C@@H](O[C@H]3O[C@H](CO)[C@@H](O)[C@H](N)[C@H]3O)[C@H](N)C[C@@H]2N)[C@H](N)C[C@@H]1O [TOBRAMYCIN] | – | Class (nephrotoxic / non-nephrotoxic training label) (renal tubules [2]; [3]): Nephrotoxic
N.N.[Cl][Pt+2][Cl] [TRANSPLATIN] | Non-nephrotoxic | –
CC(C)[C@H](N)C(=O)OCCOCn1cnc2c(=O)[nH]c(N)nc21 [VALACYCLOVIR] | Non-nephrotoxic | –
CCCC(CCC)C(=O)O [VALPROIC ACID] | Non-nephrotoxic | –
CC(c1cc2ccccc2s1)N(O)C(N)=O (centres unmarked) [ZILEUTON] | Non-nephrotoxic | –
Cc1cc(CC(=O)O)n(C)c1C(=O)c1ccc(Cl)cc1 [ZOMEPIRAC] | Non-nephrotoxic | –
GENTAMICIN | – | Class (nephrotoxic / non-nephrotoxic training label) (renal tubules [2]; [3]): Nephrotoxic
